The source of these data is patent publication US5693617A, “Inhibitors of the 26s proteolytic complex and the 20s proteasome contained therein” (ProScript, Inc., priority 1995, dated 1997).

Molecules are shown by their SMILES. “Also recorded” adds a separate entry of the source. Non-standard residues stand in square brackets, D forms with d. Residues, ends and D or L forms follow the SMILES beside them. Nle = CCCC[C@H](N)C(=O)O

For data set [1], the system named is mouse B lymphoblastoid cell line (LB27.4). Briefly: MHC-I antigen presentation, intact cells (OVA loaded by hypotonic lysis of pinosomes). It is filed as cell-based. Particulars: 50 μM MG 101 in media; FIG. 6. As to the method: Antigen-presenting cells (APCs)--mouse B lymphoblastoid cell line (LB27.4)--were washed free of serum and loaded with an ovalbumin peptide (residues 257-263), which corresponds to the sequence these cells naturally generate and present. The APCs were incubated 1 hr at 37° C., electroporated with antigen, incubated 10 min on ice and washed. The antigen loaded cells were incubated 2 hrs at 37° C., fixed with paraformaldehyde, and washed. MG 101 at the concentrations indicated in FIG. 5 was present in all steps prior to fixation. APCs were assayed for antigen presentation as described in Rock et al., J. Immunol. 145:804-811 (1990) and Carbone et al., J. Exp Med. 171:377-387 (1990). […] In the left panel, APCs were treated with (open circles) or without (closed circles) MG 101 and electroporated with ovalbumin. In the right panel, APCs were treated with (open circles) or without (closed circles) MG 101 and electroporated with ovalbumin peptide. Conditions were the same as in Example 7, except that (1) in one group of cells (referred to as MG 101 in media) MG 101 (50 μM) was omitted from the antigen load while in a parallel group (referred to as MG 101 in Ag load) MG 101 (50 μM) was included in the antigen load; and (2) OVA was introduced into the cytoplasm by hypotonic lysis of pinosomes (3) instead of electroporation.

Data set [2] relates to rat diaphragm muscle. Briefly: T3 induced protein degradation in incubated rat diaphragm. As to conditions: 40 μM MG 101; FIG. 3. As to the method:
T3 was administered to hypophysectomized rats for 7 days. […] After incubation, the tissue was homogenized, and ^3 -phenylalanine incorporation into protein and free tyrosine of the medium was measured.

The target in data set [3] is T1, 20S proteasome (Oryctolagus cuniculus, UniProt G1T4Q9).
T1 sequence (G1T4Q9 60-263): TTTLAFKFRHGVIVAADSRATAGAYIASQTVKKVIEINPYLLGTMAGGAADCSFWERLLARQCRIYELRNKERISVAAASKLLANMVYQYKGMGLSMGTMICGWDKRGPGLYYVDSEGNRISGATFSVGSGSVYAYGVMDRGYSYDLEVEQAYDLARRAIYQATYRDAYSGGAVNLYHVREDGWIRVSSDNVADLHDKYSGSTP
T1 sequence (G1SU71 1-241 partner): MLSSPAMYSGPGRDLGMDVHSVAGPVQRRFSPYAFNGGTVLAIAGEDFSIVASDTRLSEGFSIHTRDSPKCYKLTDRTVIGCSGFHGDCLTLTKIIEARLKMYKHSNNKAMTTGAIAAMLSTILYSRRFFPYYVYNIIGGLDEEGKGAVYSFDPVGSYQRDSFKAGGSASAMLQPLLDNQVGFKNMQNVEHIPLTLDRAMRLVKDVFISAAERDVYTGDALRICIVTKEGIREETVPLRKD
Briefly: Inhibition of the 20S proteasome peptidase activity (kinetic experiments). It counts as biochemical, Rabbit. The source says: Tables I-III summarize results from kinetic experiments that measured the inhibition of the 20S and 26S proteasomes, as well as cathepsin B and calpain, enzymes that may also be involved in muscle protein turnover. In these tables, Ki values are reported, which are dissociation constants for the equilibrium that is established when enzyme and inhibitor interact to form the enzyme:inhibitor complex.
The substances and assay conditions are briefly summarized in the footnotes to Table I. MG 101 and MG 102, also known as Calpain Inhibitor I and II, were purchased from Calbiochem as catalogue products.
(^a) Rabbit muscle. SDSactivated. Substrate: SucLLVYAMC.

Data set [4] deals with rat diaphragm muscle. Put plainly: Protein degradation in incubated rat diaphragm. As to the method:
Rat diaphragm muscle was cut into quarters and incubated in medium containing a mixture of amino acids, insulin, inhibitors of lysosomal and calcium dependent proteolysis, and MG 101 at the concentrations shown in FIG. 2. After 1 hour, ^3 H-phenylalanine was added and the incubation continued for 2 hours. Under these conditions, the ATP-dependent ubiquitin pathway is largely responsible for muscle protein degradation. After incubation, the tissue was homogenized and free tyrosine of the homogenate and medium was assayed separately. ^3 -phenylalanine incorporation into protein was also measured. Values are the means +SE of data from 7 animals. Protein synthesis was calculated from the incorporation of ^3 H-phenylalanine, and net protein breakdown was calculated from the release of tyrosine into the incubation medium. The total rate of protein breakdown is calculated from the equation:
Total protein breakdown=Net protein breakdown+Protein synthesis

The Ki is a dissociation constant, usually derived from enzyme kinetics or from competition with a known ligand. With `CCCC[C@@H](C=O)NC(=O)[C@H](CC(C)C)NC(=O)[C@H](CC(C)C)NC(C)=O` [MG 101, Ac-Leu-Leu-Nle-H] (Ac-Leu-Leu-[Nle]-aldehyde), the “Antigen presentation from ovalbumin in intact cells” value in data set [1] is “can enter into living cells and inhibit antigen processing; also recorded: inhibits presentation of antigen from ovalbumin”. Further, in data set [2], the “Protein degradation induced by T3 in incubated rat diaphragm” value is on record as “inhibits the accelerated proteolysis in muscle; also recorded: inhibition of protein degradation”. Besides, the “Mode of inhibition of peptidase activity of muscle 20S proteasome” value in data set [3] (FIG. 1) is listed as “competitive inhibitor”. Further, the Ki in data set [3] (both latent and active forms of 20S proteasome, read-out: Ki, peptidase activities of 20S proteasome) is 0.14 to 7 µM. The “Amino acid pools in incubated muscle” value in data set [4] is “nor does it significantly alter amino acid pools”. Besides, in data set [4] (3H-phenylalanine incorporation), the “Protein synthesis in incubated muscle” value is recorded as “does not inhibit protein synthesis”. Also, the “Protein degradation in incubated rat diaphragm” value in data set [4] (lysosomal and calcium dependent proteolysis inhibited, FIG. 2) is given as “inhibits the breakdown of muscle protein; also recorded: inhibition of protein degradation”.
